From patent publication US4960755A, “BU-3608 derivatives” (Bristol-Myers Company, priority 1988, dated 1990)
Values after ≈ are worked out from the molar mass of the structure shown. Like-named read-outs stand apart in the source and are kept apart here.

Columns and labels:
[1] = Solubility in phosphate-buffered saline solutions, PBS(-) and PBS(+); assay type: physicochemical
Description: The solubility of the various antibiotics was determined in phosphate-buffered saline (PBS) solutions and the data obtained are shown below. PBS(-) refers to a solution containing for each liter 0.2 g KCl, 0.2 g KH2 PO4, 8 g NaCl, and 1.15 g Na2 HPO4; PBS(+) contains additionally 100 mg MgCl2.6H2 O and 100 mg CaCl2.

Solubility in water = assay type: physicochemical; conditions: in words
Candida albicans A9540 = experiment: In vivo activity against Candida albicans A9540 infection in mice; design: species or system male ICR mice; conditions: for ED50: Candida albicans, read-out: PD50 (dose that protects 50% of the animals from infection)
Description: In vivo activity of compounds of the present invention was tested against Candida albicans A9540 infection in mice. Test organisms were cultured for 18 hours at 28° C. in YGP medium (yeast extract, glucose, peptone, K2 HPO4, MgSO4) and then suspended in saline. Male ICR mice weighing 20 to 24 g were infected intravenously with about 10 times the median lethal dose of the test fungus. The antibiotic at various dose levels was administered to groups of 5 mice each intravenously just after the fungal infection. The dose that protects 50% of the animals from infection (PD50, mg/kg) was calculated from survival rates recorded on the 20th day after the fungal challenge. All control animals died within 7 to 15 days after infection. The PD50 for compounds of Examples 5, 7, and 8 are 14 mg/kg (toxic), 11 mg/kg, and 3.5 mg/kg, respectively.

[2] = pbs(+) with mgcl2, PBS(+), containing additionally MgCl2 and CaCl2, read-out: Solubility
[3] = A9540, 480 h, intravenous just after infection, survival on 20th day

Row | solubility ([1]; pbs(-), read-out: Solubility) [µg/mL] | Compound | solubility [1, 2] [µg/mL] | also measured
1 | 16 to 18 (≈ 19 to 21.4 µM) | CN[C@@H]1[C@H](O[C@@H]2OC[C@@H](O)[C@H](O)[C@H]2O)[C@@H](O)[C@H](O[C@H]2c3cc(C)c(C(=O)N[C@H](C)C(=O)O)c(O)c3-c3c(cc4c(c3O)C(=O)c3cc(OC)cc(O)c3C4=O)[C@@H]2O)O[C@@H]1C [BU-3608] | 9 to 23 (≈ 10.7 to 27.4 µM) | solubility in water (Solubility in water): very limited
2 |  | COc1cc(O)c2c(c1)C(=O)c1c(cc3c(c1O)-c1c(cc(C)c(C(=O)N[C@H](C)C(=O)O)c1O)[C@H](O[C@@H]1O[C@H](C)[C@H](N(C)C)[C@H](O)[C@H]1O)[C@H]3O)C2=O [Example 5, N-methyl BU-3608 B] |  | solubility ([1]; pbs(+) with mgcl2, cacl2): 42 µg/mL (≈ 58.1 µM); solubility ([1]; pbs(-)): 330 µg/mL (≈ 457 µM); ED50 (Candida albicans A9540; A9540, iv, 480 h): 14 mg/kg; toxicity remark at PD50 (Candida albicans A9540; intravenous, at 14 mg/kg, mice): toxic
3 |  | COc1cc(O)c2c(c1)C(=O)c1c(cc3c(c1O)-c1c(cc(C)c(C(=O)NCC(=O)O)c1O)[C@H](O[C@@H]1O[C@H](C)[C@H](N(C)C)[C@H](O)[C@H]1O)[C@H]3O)C2=O [Example 6, N,N-dimethyl desxylosyl BU-3608 E] |  | solubility ([1]; pbs(+) with mgcl2, cacl2): 122 µg/mL (≈ 172 µM); solubility ([1]; pbs(-)): > 2100 µg/mL
4 | 73 (≈ 82.7 µM) | CCCN(C)[C@@H]1[C@H](O[C@@H]2OC[C@@H](O)[C@H](O)[C@H]2O)[C@@H](O)[C@H](O[C@H]2c3cc(C)c(C(=O)N[C@H](C)C(=O)O)c(O)c3-c3c(cc4c(c3O)C(=O)c3cc(OC)cc(O)c3C4=O)[C@@H]2O)O[C@@H]1C [Example 9, N-propyl BU-3608] | 32 (≈ 36.2 µM) | 
5 | > 2700 | COc1cc(O)c2c(c1)C(=O)c1c(cc3c(c1O)-c1c(cc(C)c(C(=O)N[C@H](C)C(=O)O)c1O)[C@H](O[C@@H]1O[C@H](C)[C@H]([N+](C)(C)C)[C@H](O[C@@H]4OC[C@@H](O)[C@H](O)[C@H]4O)[C@H]1O)[C@H]3O)C2=O [Example 10, quaternary ammonium derivative of BU-3608] |  | 

Row | Compound | solubility ([1]; pbs(-), read-out: Solubility) [µg/mL] | solubility [1, 2] [µg/mL] | also measured
6 | COc1cc(O)c2c(c1)C(=O)c1c(cc3c(c1O)-c1c(cc(C)c(C(=O)NCC(=O)O)c1O)[C@H](O[C@@H]1O[C@H](C)[C@H](N(C)C)[C@H](O[C@@H]4OC[C@@H](O)[C@H](O)[C@H]4O)[C@H]1O)[C@H]3O)C2=O [Example 7, N,N-dimethyl BU-3608 E] | 1800 (≈ 2140 µM) | > 2000 | ED50 (Candida albicans A9540; [3]): 11 mg/kg
7 | COc1cc(O)c2c(c1)C(=O)c1c(cc3c(c1O)-c1c(cc(C)c(C(=O)N[C@H](C)C(=O)O)c1O)[C@H](O[C@@H]1O[C@H](C)[C@H](N(C)C)[C@H](O[C@@H]4OC[C@@H](O)[C@H](O)[C@H]4O)[C@H]1O)[C@H]3O)C2=O [Example 8, N-methyl BU-3608] | 3100 (≈ 3630 µM) | 3 (≈ 3.51 µM) | ED50 (Candida albicans A9540; [3]): 3.5 mg/kg
